In ChEMBL document CHEMBL3603745, “Synthesis of ciprofloxacin dimers for evaluation of bacterial permeability in atypical chemical space” (Bioorg Med Chem Lett, 2015):
≈ marks a conversion by molar mass, not a printed value.

Key:
Pseudomonas aeruginosa [1] = experiment: Antibacterial activity against wild type Pseudomonas aeruginosa PAO1 by broth microdilution method; format: functional
Pseudomonas aeruginosa [2] = experiment: Antibacterial activity against mexX, mexB deficient Pseudomonas aeruginosa NB52023-CDK006 harboring gyrAT83I and parC S87L by broth microdilution method; format: functional
Escherichia coli [3] = experiment: Antibacterial activity against tolC-deficient Escherichia coli JW5503-1 by broth microdilution method; format: functional
Escherichia coli [4] = experiment: Antibacterial activity against fluoroquinolone-resistant Escherichia coli CH10 harboring gyrA S83L D87N, parC S80I E84G, AcrA+ by broth microdilution method; format: functional
[5] = Inhibition of Escherichia coli recombinant gyrase A2B2 assessed as reduction of pHOT-1 supercoiling after 90 mins
Escherichia coli [6] = experiment: Antibacterial activity against Escherichia coli imp-4213 by broth microdilution method; format: functional
Staphylococcus aureus [7] = experiment: Antibacterial activity against fluoroquinolone-resistant Staphylococcus aureus NB01006-AVR005 harboring gyrA S84L, parC S80F, parE E471K by broth microdilution method; format: functional
Staphylococcus aureus [8] = experiment: Antibacterial activity against wild type methicillin-susceptible Staphylococcus aureus ATCC 49951 by broth microdilution method; format: functional
Pseudomonas aeruginosa [9] = experiment: Antibacterial activity against Pseudomonas aeruginosa K1542 deficient with mexX, mexB by broth microdilution method; format: functional
Pseudomonas aeruginosa [10] = experiment: Antibacterial activity against mexX, mexB deficient Pseudomonas aeruginosa NB52023-CDK005 harboring gyrAT83I by broth microdilution method; format: functional
Escherichia coli [11] = experiment: Antibacterial activity against wild type Escherichia coli ATCC 25922 by broth microdilution method; format: functional
Escherichia coli [12] = experiment: Antibacterial activity against wild type Escherichia coli MC4100 by broth microdilution method; format: functional
Escherichia coli [13] = experiment: Antibacterial activity against wild type Escherichia coli BW5328/pAH69 by broth microdilution method; format: functional
Escherichia coli [14] = experiment: Antibacterial activity against tolC-deficient Escherichia coli NB27005-CDY0039 expressing gyrA S83L […], parC S80I mutant by broth microdilution method; format: functional
Staphylococcus aureus [15] = experiment: Antibacterial activity against wild type Staphylococcus aureus ATCC 29213 by broth microdilution method; format: functional

Row | SMILES | MIC (Pseudomonas aeruginosa [1]) [µg/mL] | MIC (Pseudomonas aeruginosa [2]) [µg/mL] | MIC (Escherichia coli [3]) [µg/mL] | MIC (Escherichia coli [4]) [µg/mL] | IC50 [5] [nM] | MIC (Escherichia coli [6]) [µg/mL] | MIC (Staphylococcus aureus [7]) [µg/mL] | MIC (Staphylococcus aureus [8]) [µg/mL] | MIC (Pseudomonas aeruginosa [9]) [µg/mL] | MIC (Pseudomonas aeruginosa [10]) [µg/mL] | MIC (Escherichia coli [11]) [µg/mL] | MIC (Escherichia coli [12]) [µg/mL] | MIC (Escherichia coli [13]) [µg/mL] | MIC (Escherichia coli [14]) [µg/mL] | MIC (Staphylococcus aureus [15]) [µg/mL]
1 | O=C(O)c1cn(C2CC2)c2cc(N3CCN(CCOCCOCCOCCOCCOCCOCCOCCN4CCN(c5cc6c(cc5F)c(=O)c(C(=O)O)cn6C5CC5)CC4)CC3)c(F)cc2c1=O | 16 (≈ 16 µM) | > 32 | 0.125 (≈ 0.125 µM) | > 32 | 1380 | 4 (≈ 4.01 µM) | > 32 | 1 (≈ 1 µM) | 16 (≈ 16 µM) | > 32 | 2 (≈ 2.01 µM) | 4 (≈ 4.01 µM) | 4 (≈ 4.01 µM) | 8 (≈ 8.02 µM) | 4 (≈ 4.01 µM)
2 | O=C(O)c1cn(C2CC2)c2cc(N3CCN(CCOCCOCCOc4ccc5ccc(=O)oc5c4)CC3)c(F)cc2c1=O | 16 (≈ 26.3 µM) | > 32 | ≤ 0.03 | > 32 | 6670 | 0.125 (≈ 0.206 µM) | > 32 | 2 (≈ 3.29 µM) | 8 (≈ 13.2 µM) | > 32 | 1 (≈ 1.65 µM) | 2 (≈ 3.29 µM) | 1 (≈ 1.65 µM) | > 32 | 2 (≈ 3.29 µM)
3 | O=C(NCCCCC(=O)N1CCN(c2cc3c(cc2F)c(=O)c(C(=O)O)cn3C2CC2)CC1)c1cccc(C(=O)NCCCCC(=O)N2CCN(c3cc4c(cc3F)c(=O)c(C(=O)O)cn4C3CC3)CC2)c1 | > 32 | > 32 | 0.5 (≈ 0.505 µM) | > 32 | 9970 | 2 (≈ 2.02 µM) | > 32 | 4 (≈ 4.04 µM) | > 32 | > 32 | 16 (≈ 16.1 µM) | 16 (≈ 16.1 µM) | 16 (≈ 16.1 µM) | > 32 | > 32
4 | Cc1cc(C(=O)N2CCN(c3cc4c(cc3F)c(=O)c(C(=O)O)cn4C3CC3)CC2)cc(C(=O)N2CCN(c3cc4c(cc3F)c(=O)c(C(=O)O)cn4C3CC3)CC2)c1 | 4 (≈ 4.96 µM) | > 32 | ≤ 0.03 | > 32 | 1160 | ≤ 0.03 | > 32 | 0.5 (≈ 0.62 µM) | 0.5 (≈ 0.62 µM) | 8 (≈ 9.92 µM) | 0.5 (≈ 0.62 µM) | 0.5 (≈ 0.62 µM) | 0.5 (≈ 0.62 µM) | 16 (≈ 19.8 µM) | 1 (≈ 1.24 µM)
5 | O=C(O)c1cn(C2CC2)c2cc(N3CCN(C(=O)OCCOCCOCCOC(=O)N4CCN(c5cc6c(cc5F)c(=O)c(C(=O)O)cn6C5CC5)CC4)CC3)c(F)cc2c1=O | > 32 | > 32 | 0.125 (≈ 0.145 µM) | > 32 | 7250 | 0.25 (≈ 0.289 µM) | > 32 | 2 (≈ 2.31 µM) | 16 (≈ 18.5 µM) | > 32 | 16 (≈ 18.5 µM) | 16 (≈ 18.5 µM) | 16 (≈ 18.5 µM) | 32 (≈ 37 µM) | 4 (≈ 4.63 µM)
6 | O=C(CCN1CCN(c2cc3c(cc2F)c(=O)c(C(=O)O)cn3C2CC2)CC1)NCCOCCOCCNC(=O)CCN1CCN(c2cc3c(cc2F)c(=O)c(C(=O)O)cn3C2CC2)CC1 | > 32 | > 32 | 1 (≈ 1.09 µM) | > 32 | 2140 | 4 (≈ 4.35 µM) | > 32 | > 32 | > 32 | > 32 | 8 (≈ 8.71 µM) | 8 (≈ 8.71 µM) | 8 (≈ 8.71 µM) | > 32 | > 32
7 | CN(CC(=O)N1CCN(c2cc3c(cc2F)c(=O)c(C(=O)O)cn3C2CC2)CC1)CC(=O)N1CCN(c2cc3c(cc2F)c(=O)c(C(=O)O)cn3C2CC2)CC1 | 2 (≈ 2.58 µM) | 32 (≈ 41.4 µM) | 0.06 (≈ 0.0775 µM) | > 32 | 4370 | 0.06 (≈ 0.0775 µM) | > 32 | 2 (≈ 2.58 µM) | 0.5 (≈ 0.646 µM) | 8 (≈ 10.3 µM) | 0.25 (≈ 0.323 µM) | 0.25 (≈ 0.323 µM) | 0.25 (≈ 0.323 µM) | 32 (≈ 41.4 µM) | 4 (≈ 5.17 µM)
8 | O=C(CN1CCN(c2cc3c(cc2F)c(=O)c(C(=O)O)cn3C2CC2)CC1)NCCOCCOCCNC(=O)CN1CCN(c2cc3c(cc2F)c(=O)c(C(=O)O)cn3C2CC2)CC1 | > 32 | > 32 | 4 (≈ 4.49 µM) | > 32 | 1040 | 8 (≈ 8.98 µM) | > 32 | > 32 | 32 (≈ 35.9 µM) | > 32 | 32 (≈ 35.9 µM) | 32 (≈ 35.9 µM) | 32 (≈ 35.9 µM) | > 32 | > 32
9 | O=C(O)c1cn(C2CC2)c2cc(N3CCN(CCOCCOCCOCCN4CCN(c5cc6c(cc5F)c(=O)c(C(=O)O)cn6C5CC5)CC4)CC3)c(F)cc2c1=O | 16 (≈ 19.5 µM) | > 32 | 0.125 (≈ 0.152 µM) | > 32 | 4040 | 0.25 (≈ 0.305 µM) | > 32 | 8 (≈ 9.75 µM) | 32 (≈ 39 µM) | 32 (≈ 39 µM) | 1 (≈ 1.22 µM) | 1 (≈ 1.22 µM) | 1 (≈ 1.22 µM) | > 32 | 16 (≈ 19.5 µM)
10 | O=C(O)c1cn(C2CC2)c2cc(N3CCN(Cc4cccc(CN5CCN(c6cc7c(cc6F)c(=O)c(C(=O)O)cn7C6CC6)CC5)c4)CC3)c(F)cc2c1=O | 32 (≈ 41.8 µM) | > 32 | 0.06 (≈ 0.0784 µM) | > 32 | 1180 | ≤ 0.03 | 32 (≈ 41.8 µM) | 0.25 (≈ 0.327 µM) | 8 (≈ 10.5 µM) | > 32 | 1 (≈ 1.31 µM) | 2 (≈ 2.61 µM) | 2 (≈ 2.61 µM) | > 32 | 0.5 (≈ 0.654 µM)
11 | O=C(CCN1CCN(c2cc3c(cc2F)c(=O)c(C(=O)O)cn3C2CC2)CC1)NCCOCCNC(=O)CCN1CCN(c2cc3c(cc2F)c(=O)c(C(=O)O)cn3C2CC2)CC1 | > 32 | > 32 | 4 (≈ 4.57 µM) | > 32 | 9090 | 8 (≈ 9.14 µM) | > 32 | > 32 | > 32 | > 32 | 32 (≈ 36.6 µM) | 32 (≈ 36.6 µM) | 32 (≈ 36.6 µM) | > 32 | > 32
12 | O=C(O)c1cn(C2CC2)c2cc(N3CCN(CCOCCOCCOCCOCCOCCN4CCN(c5cc6c(cc5F)c(=O)c(C(=O)O)cn6C5CC5)CC4)CC3)c(F)cc2c1=O | 32 (≈ 35.2 µM) | > 32 | 0.125 (≈ 0.138 µM) | > 32 | 10000 | 0.125 (≈ 0.138 µM) | > 32 | 2 (≈ 2.2 µM) | 8 (≈ 8.8 µM) | > 32 | 2 (≈ 2.2 µM) | 4 (≈ 4.4 µM) | 2 (≈ 2.2 µM) | > 32 | 8 (≈ 8.8 µM)
13 | C=CCCC(=O)N1CCN(c2cc3c(cc2F)c(=O)c(C(=O)O)cn3C2CC2)CC1 | 16 (≈ 38.7 µM) | > 32 | ≤ 0.03 | > 32 | 760 | ≤ 0.03 | 32 (≈ 77.4 µM) | 0.25 (≈ 0.605 µM) | 2 (≈ 4.84 µM) | > 32 | 0.5 (≈ 1.21 µM) | 1 (≈ 2.42 µM) | 1 (≈ 2.42 µM) | 2 (≈ 4.84 µM) | 0.25 (≈ 0.605 µM)
14 | O=C(O)c1cn(C2CC2)c2cc(N3CCN(CCOCCOCCN4CCN(c5cc6c(cc5F)c(=O)c(C(=O)O)cn6C5CC5)CC4)CC3)c(F)cc2c1=O | 32 (≈ 41.2 µM) | > 32 | 0.25 (≈ 0.322 µM) | > 32 | 28200 | 0.5 (≈ 0.644 µM) | > 32 | 16 (≈ 20.6 µM) | 8 (≈ 10.3 µM) | > 32 | 2 (≈ 2.57 µM) | 2 (≈ 2.57 µM) | 2 (≈ 2.57 µM) | > 32 | 16 (≈ 20.6 µM)
15 | C=CCN1CCN(c2cc3c(cc2F)c(=O)c(C(=O)O)cn3C2CC2)CC1 | 1 (≈ 2.69 µM) | 32 (≈ 86.2 µM) | ≤ 0.03 | > 32 | 580 | ≤ 0.03 | 32 (≈ 86.2 µM) | 0.125 (≈ 0.337 µM) | 0.25 (≈ 0.673 µM) | 4 (≈ 10.8 µM) | ≤ 0.03 | 0.06 (≈ 0.162 µM) | 0.06 (≈ 0.162 µM) | 2 (≈ 5.38 µM) | 0.125 (≈ 0.337 µM)
16 | O=C(CN1CCN(c2cc3c(cc2F)c(=O)c(C(=O)O)cn3C2CC2)CC1)NCCCN1CCN(CCCNC(=O)CN2CCN(c3cc4c(cc3F)c(=O)c(C(=O)O)cn4C3CC3)CC2)CC1 | > 32 | > 32 | 2 (≈ 2.12 µM) | > 32 | 1590 | 8 (≈ 8.48 µM) | > 32 | 8 (≈ 8.48 µM) | > 32 | > 32 | > 32 | > 32 | > 32 | > 32 | 32 (≈ 33.9 µM)
17 | CC[C@H]1OC(=O)[C@H](C)[C@@H](O[C@H]2C[C@@](C)(OC)[C@@H](O)[C@H](C)O2)[C@H](C)[C@@H](O[C@@H]2O[C@H](C)C[C@H](N(C)C)[C@H]2O)[C@](C)(O)C[C@@H](C)C(=O)[C@H](C)[C@@H](O)[C@]1(C)O [ERYTHROMYCIN] | > 32 | > 32 | 2 (≈ 2.73 µM) | > 32 | – | 2 (≈ 2.73 µM) | 0.5 (≈ 0.681 µM) | 0.25 (≈ 0.341 µM) | > 32 | > 32 | > 32 | > 32 | 32 (≈ 43.6 µM) | 2 (≈ 2.73 µM) | 0.25 (≈ 0.341 µM)
18 | O=C(O)c1cn(C2CC2)c2cc(N3CCNCC3)c(F)cc2c1=O [CIPROFLOXACIN] | – | 4 (≈ 12.1 µM) | ≤ 0.03 | > 32 | 460 | ≤ 0.03 | > 32 | 0.25 (≈ 0.754 µM) | 0.06 (≈ 0.181 µM) | – | ≤ 0.03 | ≤ 0.03 | ≤ 0.03 | – | 0.5 (≈ 1.51 µM)
